Assay results published in patent publication US20250388592A1 (REMYND N.V., priority 2022, published 2025).

What follows are compounds tested on M17_3TAU(P301L) cells (assay: TAU-induced cytotoxicity (LDH) in the neuroblastoma tauopathy model). Conditions: Homo sapiens, 168 h, inhibition of TAU-induced toxicity, 7 days retinoic acid differentiation, LDH readout.
Assay type: cell-based
Excerpt: A TAU expression plasmid was constructed by sub-cloning the cDNA encoding for human TAU-P301L protein, wherein proline at position 301 is substituted by a leucine residue, into mammalian expression vector pcDNA3.1 resulting in the plasmid pcDNA3.1-TAUP301L. Plasmids pcDNA3.1 and pcDNA3.1-TAU P301L were transfected into human neuroblastoma cells (BE-M17; ATCC No. CRL-2267™) using lipofectamine reagent and subsequently, independent clonal cell lines with the plasmids stably integrated into the genome were selected by antibiotic resistance selection (Geneticin (G418)), resulting in cell lines M17.pcDNA3 and M17_3TAUP301L. Expression of the TAUP301 L gene in the M17_3TAUP301 L cells was confirmed by Western blot analysis.
Differentiation of the cells with RA leads to phosphorylation and subsequent aggregation of TAU, inducing a tauopathy in these cells. Cytotoxicity of cells was measured by quantification of lactate dehydrogenase (LDH) levels. In dead cells LDH is leaked out of the cells into the medium due to a loss of plasma-membrane integrity.
Briefly, 3 days preceding the experiment pre-cultures of M17.pcDNA3 and M17_3TAU(P301L) cells were prepared, starting from a stock culture, at a density of 50.000-100.000 cells/cm2 in detection medium (Optimem Reduced Serum without phenol red (Gibco, Cat. 31985-047) supplemented with 1% fetal calf serum (FCS), 1 mM sodium pyruvate, 1×non-essential amino acids (NEAA), 500 μg/ml G418 and 0.5×antibiotic/antimycotic (ABAM)). At the day of the experiment these precultures were diluted to ˜[…] in detection medium without FCS and 60 μL of this suspension is dispensed per well into a 96-well microtiter plate. After 3 hours of incubation at 37° C./5% C02 an equal volume of detection medium containing 2.5 μM RA was added and subsequently incubated for 7 days at 37° C./5% CO2. After 7 days, LDH activity was determined using the Promega Cytotox 96 Non-Radioactive cytotoxicity assay (Cat. G1780), according the manufacturer's instructions. Cytotoxicity is measured as the ratio of LDH increase in the supernatant divided by the LDH increase in the total cell suspension (sum of the LDH measured in cells and supernatant). Toxicity was determined after 7 days of differentiation with retinoic acid in M17_3TAU(P301 L) cells compared to M17.pcDNA3 cells.
The M17_3TAU(P301L) cell line makes it possible to assess the ability of novel compounds to inhibit TAU-induced cytotoxicity. […] Compounds were tested for their ability to hamper TAU-induced toxicity at different concentrations, ranging from low non-effective concentrations to high potent concentrations. Afterwards, the dose-dependent inhibition curve was used to calculate their EC50 (Table 3B).

Row | SMILES | EC50 [nM]
1 | Cc1cccnc1CN1CC2(C1)CN(C(=O)CC1CCCC1)C2 [Cpd B437] | 354
2 | O=C(OCC1CCC(F)(F)CC1)N1CC2(CN(Cc3ncccc3F)C2)C1 [Cpd B162] | 51.6
3 | COc1cccc(CC(=O)N2CC3(CN(Cc4ncccc4C)C3)C2)c1 [Cpd B416] | 2220
4 | Cc1ccc(CNC2CC3(C2)CC(Nc2nc(Cc4ccc(Cl)cc4)ns2)C3)c(C)c1 (centres unmarked) [Cpd B319, N-(3-(4-chlorobenzyl)-1,2,4-thiadiazol-5-yl)-N′-(2,4-dimethylbenzyl) spiro[3.3]heptane-2,6-diamine] | 2.1
5 | O=C(NC1CCC(F)(F)CC1)N1CC2(CN(Cc3ncccc3F)C2)C1 [Cpd B441] | 253
6 | O=C(Cc1ccc(Cl)cc1)N1CC2(CN(Cc3ccccc3)C2)C1 [Cpd B003, 1-(6-benzyl-2,6-diazaspiro[3.3]heptan-2-yl)-2-(4-chlorophenyl)ethanone] | 6.97
7 | O=C(N1CC2(CN(Cc3ccc(F)cc3)C2)C1)C(F)(F)c1ccc(F)cc1 [Cpd B099] | 86
8 | COc1ccc(CCN2CC3(C2)CN(C(=O)Cc2ccc(F)cc2)C3)cc1 [Cpd B025, 2-(4-Fluoro-phenyl)-1-{6-[2-(4-methoxy-phenyl)-ethyl]-2,6-diaza-spiro[3.3]hept-2-yl}-ethanone] | 17.9
9 | O=C(Cc1ccccc1O)N1CC2(CN(Cc3ccc(F)cc3)C2)C1 [Cpd B423] | 972
10 | COC(=O)c1ccc(CC(=O)N2CC3(CN(Cc4ccc(F)cc4)C3)C2)cc1 [Cpd B428] | 778
11 | COc1ccc(CCCN2CC3(C2)CN(C(=O)Cc2ccc(F)cc2)C3)cc1 [Cpd B060, 2-(4-Fluoro-phenyl)-1-{6-[3-(4-methoxy-phenyl)-propyl]-2,6-diaza-spiro[3.3]hept-2-yl}-ethanone] | 0.81
12 | Cc1nc(CN2CC3(C2)CN(C(=O)NC2CCC(F)(F)CC2)C3)cs1 [Cpd B450] | 116
13 | COc1ccccc1CCCN1CC2(C1)CN(C(=O)Cc1ccc(Cl)cc1)C2 [Cpd B058, 2-(4-chlorophenyl)-1-(6-(3-(2-methoxyphenyl)propyl)-2,6-diazaspiro[3.3]heptan-2-yl)ethanone] | 1.72
14 | COc1cccc(CN2CC3(C2)CN(C(=O)COC2CCCCC2)C3)c1 [Cpd B070] | 54
15 | Cc1ccc(CCN2CC3(C2)CN(C(=O)Cc2ccc(F)cc2)C3)cc1 [Cpd B026, 2-(4-Fluoro-phenyl)-1-[6-(2-p-tolyl-ethyl)-2,6-diaza-spiro[3.3]hept-2-yl]-ethanone] | 26.1
16 | NC(=O)c1cccc(CN2CC3(C2)CN(C(=O)Cc2ccc(F)cc2)C3)c1 [Cpd B012, 3-{6-[2-(4-Fluoro-phenyl)-acetyl]-2,6-diaza-spiro[3.3]hept-2-ylmethyl}-benzamide] | 45.2
17 | Cc1ccc(CN2CC3(C2)CN(C(=O)NCc2ccc(F)cc2)C3)o1 [Cpd B191, N-(4-fluorobenzyl)-6-((2-methyl-furan-5-yl)methyl)-2,6-diazaspiro[3.3]heptane-2-carboxamide] | 144
18 | FC(F)(F)c1ccc(CNC2CC3(C2)CC(Nc2nc(Cc4ccc(Cl)cc4)ns2)C3)cc1 (centres unmarked) [Cpd B304, N-(3-(4-chlorobenzyl)-1,2,4-thiadiazol-5-yl)-N′-(4-(trifluoromethyl)benzyl) spiro[3.3]heptane-2,6-diamine] | 31.5
19 | COc1cccc(CN2CC3(CN(Cc4ccc(F)cc4)C3)C2)c1 [Cpd B226] | 1.16
20 | COc1cccc(CN2CC3(C2)CN(S(=O)(=O)c2ccc(OC(F)(F)F)cc2)C3)c1 [Cpd B219] | 8.34
21 | Clc1ccc(Cc2nsc(NC3CC4(CC(NCc5cccc6c5OCO6)C4)C3)n2)cc1 (centres unmarked) [Cpd B330, N-(benzo[d][1,3]dioxol-4-ylmethyl)-N′-(3-(4-chlorobenzyl)-1,2,4-thiadiazol-5-yl) spiro[3.3]heptane-2,6-diamine] | 8
22 | CS(=O)(=O)c1ccc(CNC2CC3(C2)CC(Nc2nc(Cc4ccc(Cl)cc4)ns2)C3)cc1 (centres unmarked) [Cpd B331, N-(3-(4-chlorobenzyl)-1,2,4-thiadiazol-5-yl)-N′-(4-(methylsulfonyl)benzyl) spiro[3.3]heptane-2,6-diamine] | 73.3
23 | O=C(NCC1CCC(F)(F)CC1)N1CC2(CN(Cc3ncccc3C(F)(F)F)C2)C1 [Cpd B197] | 12.8
24 | COc1cccc(CN2CC3(C2)CN(C(=O)Nc2ccc(Cl)cc2)C3)c1 [Cpd B185] | 17.8
25 | COc1cccc(CN2CC3(C2)CN(S(=O)(=O)c2ccc(C(F)(F)F)cc2)C3)c1 [Cpd B220] | 33.9

Row | SMILES | EC50 [nM]
26 | O=C(Nc1cccc(C(F)(F)F)c1)N1CC2(CN(Cc3ccc(F)cc3)C2)C1 [Cpd B189] | 10.6
27 | COc1cc(OC)nc(CN2CC3(C2)CN(C(=O)Cc2ccc(Cl)cc2)C3)n1 [Cpd B036, 2-(4-chlorophenyl)-1-(6-((4,6-dimethoxypyrimidin-2-yl)methyl)-2,6-diazaspiro[3.3]heptan-2-yl)ethanone] | 17.6
28 | O=C(NCC1CCC(F)(F)CC1)N1CC2(CN(Cc3ccc(F)cn3)C2)C1 [Cpd B453] | 83.6
29 | O=C(OC1CCC(F)(F)CC1)N1CC2(CN(Cc3ccc(F)cc3F)C2)C1 [Cpd B152] | 2.76
30 | O=C(OCc1ccc(Cl)cc1)N1CC2(CN(Cc3ccc(F)cc3)C2)C1 [Cpd B130] | 13.3
31 | Cn1cc(CN2CC3(C2)CN(C(=O)CC2CCC(F)(F)CC2)C3)cn1 [Cpd B119] | 46
32 | Cn1ccc(CN2CC3(C2)CN(C(=O)NCc2ccc(F)cc2)C3)n1 [Cpd B406] | 4620
33 | O=C(OC1CCC(F)(F)CC1)N1CC2(CN(Cc3ncccc3Cl)C2)C1 [Cpd B154] | 7.81
34 | O=S(=O)(Cc1cccc(Cl)c1)N1CC2(CN(Cc3ccc(F)cc3)C2)C1 [Cpd B218] | 16.8
35 | O=C(Cc1ccc(F)cc1)N1CC2(CN(Cc3ccccc3)C2)C1 [Cpd B002, 1-(6-benzyl-2,6-diazaspiro[3.3]heptan-2-yl)-2-(4-fluorophenyl)ethanone] | 9.52
36 | COc1cccc(CN2CC3(CN(Cc4ccc(Cl)cc4)C3)C2)c1 [Cpd B225, 2-(4-chlorobenzyl)-6-(3-methoxybenzyl)-2,6-diazaspiro[3.3]heptane] | 5.27
37 | O=C(Cc1ccc(OC(F)(F)F)cc1)N1CC2(CN(Cc3ccc(F)cc3)C2)C1 [Cpd B090] | 9.15
38 | Cc1nc(CN2CC3(C2)CN(C(=O)N(C)C2CCC(F)(F)CC2)C3)cs1 [Cpd B172] | 102
39 | Cc1cccnc1CN1CC2(C1)CN(C(=O)C(F)(F)c1ccc(F)cc1)C2 [Cpd B087] | 1020
40 | Cc1cccnc1CN1CC2(C1)CN(S(=O)(=O)Cc1cccc(C(F)(F)F)c1)C2 [Cpd B212] | 4.94
41 | Cn1ncc(CN2CC3(C2)CN(C(=O)OCC2CCC(F)(F)CC2)C3)c1Cl [Cpd B158] | 65.3
42 | O=C(Cc1ccc(Cl)cc1)N1CC2(CN(Cc3cccc(Cl)c3)C2)C1 [Cpd B033, 1-(6-(3-chlorobenzyl)-2,6-diazaspiro[3.3]heptan-2-yl)-2-(4-chlorophenyl)ethanone] | 2.46
43 | Cc1cccc(CCN2CC3(C2)CN(C(=O)Cc2ccc(Cl)cc2)C3)c1 [Cpd B049, 2-(4-chlorophenyl)-1-(6-(3-methylphenethyl)-2,6-diazaspiro[3.3]heptan-2-yl)ethanone] | 12.4
44 | O=C(Cc1cccnc1)N1CC2(CN(Cc3ccc(F)cc3)C2)C1 [Cpd B409] | 3720
45 | CN(Cc1ccccc1)C1CC2(CC(NC(=O)Cc3ccc(Cl)cc3)C2)C1 (centres unmarked) [Cpd B068, N-(6-(benzyl(methyl)amino)spiro[3.3]heptan-2-yl)-2-(4-chlorophenyl)acetamide] | 13.4
46 | CCn1ccc(CN2CC3(C2)CN(C(=O)CC2CCC(F)(F)CC2)C3)n1 [Cpd B118] | 27.8
47 | COC(=O)c1ccc(CN2CC3(C2)CN(C(=O)Cc2ccc(Cl)cc2)C3)cc1 [Cpd B035, methyl 4-((6-(2-(4-chlorophenyl)acetyl)-2,6-diazaspiro[3.3]heptan-2-yl)methyl)benzoate] | 6.06
48 | COc1cc(OC)nc(CN2CC3(C2)CN(C(=O)Cc2ccc(F)cc2)C3)n1 [Cpd B064, 1-[6-(4,6-Dimethoxy-pyrimidin-2-ylmethyl)-2,6-diaza-spiro[3.3]hept-2-yl]-2-(4-fluoro-phenyl)-ethanone] | 32.8
49 | O=C(Cc1ccc(F)cc1)N1CC2(CN(CCCc3ccccc3)C2)C1 [Cpd B001, 2-(4-fluorophenyl)-1-(6-(3-phenylpropyl)-2,6-diazaspiro[3.3]heptan-2-yl)ethanone] | 10.7
50 | Cc1nc(CN2CC3(C2)CN(C(=O)OCC2CCC(F)(F)CC2)C3)cs1 [Cpd B156] | 83.3
